Experimental data from patent publication US20190192521A1, “Methods of Treating Arid1A-Mutated Cancers With HDAC6 Inhibitors and EZH2 Inhibitors” (The Wistar Institute of Anatomy and Biology, priority 2016, published 2019).
“Also recorded” adds a separate entry of the source.

Legend:
[1] = tested on: ARID1A-mutated TOV21G cells; assay: apoptosis and growth inhibition with or without p53 knockdown, TOV21G; format: cell-based, human
Description: Growth inhibition was calculated based on integrated density as measured in NIH ImageJ, and values were normalized to vehicle control. Data is representative of 3 independent experiments. Error bars represent S.E.M. The p-value was calculated via two-tailed t-test.
FIG. 91 illustrates dose responsive curves of the indicated cells treated with the HDAC6 inhibitor ACY1215; ARID1A wildtype RMG1 and OVCA429 cells were used as controls for comparison; n=4 independent experiments; error bars represent S.E.M. P-value calculated via two-tailed t-test.
FIG. 92 illustrates ARID1A-mutated TOV21G with or without p53 knockdown treated with ACY1215 (1.25 μM) or DMSO controls for 48 hours; percent apoptosis was quantified by FACS analysis based on Annexin V staining; n=3 independent experiments.
FIG. 97 illustrates ARID1A-mutated TOV21G cells with or without endogenous p53 knockdown by a shp53 that targets the 3′ UTR […] region of the human TP53 gene together with a lentivirus encoding a control, wildtype p53 or a p53K12OR mutant—the percentage of surviving cells of the indicated cells treated with ACY1215 was determined by colony formation assay; n=4 independent experiments.
Annexin V and mitochondria membrane potentials were measured as follows. Phosphatidylserine externalization was detected using an Annexin V staining kit (Life Technologies) following the manufacturer's instructions. […]

OVCA429 cells = assay: colony formation assay, control and ARID1A CRISPR OVCA429 cells; format: cell-based, human; settings: 1.25 μM
Description: FIG. 72 illustrates control and ARID1A CRISPR OVCA429 cells treated with or without 1.25 μM ACY1215 in a colony formation assay.
FIG. 73 illustrates the quantification of ARID1A CRISPR OVCA429 cells treated with or without 1.25 μM ACY1215 in a colony formation assay; n=4 independent experiments.
Generation of ARID1A CRISPR OVCA429 cells. OVCA429 cells were transfected with CRISPR-ARID1A (pSpCas9(BB)-2A-Puro (PX459)). The ARID1A gRNA sequence is: 5′-[…]-3′ (SEQ ID NO:33). Fugene6 transfection reagent (Promega) was used as per manufacturer's specifications. Clonal populations for the loss of ARID1A expression were screened through immunoblot.
Colony formation assays were performed as follows. Cell lines were infected with lentivirus pLKO.1-shRNAs or pLKO.1-control with puromycin selection marker. Infected cells were selected with 1 μg/mL of puromycin for 72 hours and the selected cells were seeded in 12-well or 24-well plates. Cell medium was changed every three days with appropriate drug doses for 14 days or until control wells became confluent. Colonies were washed twice with PBS and fixed with 10% methanol and 10% acetic acid in distilled water. Fixed colonies were stained with 0.005% crystal violet. Integrated density was measured using NIH ImageJ software.

[2] = tested on: ARID1A-mutated TOV21G and OVISE cells; assay: apoptosis (Annexin V, cleaved caspase 3, cleaved PARP p85) in ARID1A-mutated cells; format: cell-based, human
Description: FIG. 10 illustrates the finding that HDAC6 inhibition induces apoptosis in ARID1A-inactivated cells. […] Cells were collected and stained for apoptotic markers Annexin V. Apoptotic cells were quantified. Error bars represent standard error of the mean. The p-value was calculated via a two-tailed t-test.
FIG. 11 illustrates the results of the experiments of FIG. 10, but examined for apoptotic markers cleaved caspase 3 and cleaved PARP p85 by immunoblot. GAPDH expression was used as a loading control.
Cells were collected, incubated with an Annexin V-FITC antibody and subjected to flow cytometry analysis. Annexin V-positive cells (apoptotic) were measured with FloJo software. Mean of three independent experiments with S.E.M.
FIG. 78 illustrates percent apoptosis based on Annexin V staining in ARID1A mutated TOV21G cells treated with 1.25 μM ACY1215, 20 μM pan-caspase inhibitor Q-VD-Oph, or a combination for 48 hrs.
FIG. 79 illustrates percent apoptosis based on Annexin V staining in ARID1A mutated TOV21G cells treated with 1.25 μM ACY1215 for 48 hrs with or without knockdown of caspase 3 or caspase 9.
For immunoblotting, protein was isolated as described in Bitler et al. Nat. Med. 2015, 21, 231-238. Briefly, protein was extracted with RIPA buffer (150 mM NaCl, 1% NP40, 0.5% sodium deoxycholate, 0.1% SDS, 50 mM Tris pH 8.0, and 1 mM PMSF). Protein was separated on a SDS-PAGE and transferred to PVDF membrane. For immunoblot of p53 post-translation modifications, cells were treated with a proteasome inhibitor MG132 (10 μM) to stabilize p53 protein.
Annexin V and mitochondria membrane potentials were measured as follows. Phosphatidylserine externalization was detected using an Annexin V staining kit (Life Technologies) following the manufacturer's instructions. To measure change in mitochondria membrane potential cells were treated with 200 nM of tetramethylrhodamine, ethyl ester (TMRE; Abcam) for 15 min at 37° C. Annexin V and TMRE-positive cells were detected using the LSR18 and analyzed with the FlowJo software module.

[3] = tested on: primary clear cell ovarian tumour cultures with (VOA4841) and without (XVOA295) ARID1A expression; assay: colony formation / dose response, primary clear cell ovarian tumour cultures; format: cell-based, human
Description: FIG. 71 illustrates the HDAC6 inhibitor ACY1215 dose response curves of primary clear cell ovarian tumour cultures with (VOA4841) and without (XVOA295) ARID1A expression; n=3 independent experiments.
Cell lines and 3D culture conditions. The protocol for using primary cultures of human ovarian clear cell tumour cells was approved by the University of British Columbia Institutional Review Board. The primary tumour cells were cultured in RPMI 1640 supplemented with 10% fetal bovine serum (FBS) and 1% penicillin/streptomycin. Ovarian clear cell carcinoma cell lines (TOV21G, OVTOKO, OVISE and RMG1) were purchased from JCRB (Japanese Collection of Research Bioresources) Cell Bank. TOV21G, OVTOKO, and OVISE cells were cultured in RPMI 1640 supplemented with 10% fetal bovine serum (FBS) and 1% penicillin/streptomycin. RMG1 cells were cultured in 1:1 Dulbecco's modified Eagle's medium (DMEM):F12 supplemented with 10% FBS. Viral packaging cells were cultured in DMEM supplemented with 10% FBS at 37° C. supplied with 5% CO2. Cells lines are authenticated at The Wistar Institute's Genomics Facility using short tandem repeat DNA profiling. Regular Mycoplasma testing was performed using LookOut Mycoplasma PCR detection (Sigma-Aldrich Co.). […]
Colony formation assays were performed as follows. […] Integrated density was measured using NIH ImageJ software.

[4] = clinical trials for hematopoietic malignancies; Santo et al. Blood 2012; cited from earlier work

O=C(CCCCCCNC(=O)c1cnc(N(c2ccccc2)c2ccccc2)nc1)NO [rocilinostat, 2-(diphenylamino)-N-(7-(hydroxyamino)-7-oxoheptyl)pyrimidine-5-carboxamide]
effect of p53 knockdown on apoptosis and growth inhibition induced by the compound [1]: significantly impaired the apoptosis and growth inhibition | rescue of p53 knockdown-mediated impairment of compound-induced growth inhibition ([1]; wildtype p53 or p53K120R): wildtype p53 but not the p53K120R mutant rescued | effect of ARID1A knockout on sensitivity (OVCA429 cells): significantly increased the sensitivity | apoptosis induced by the compound after knockdown of Caspase 8 [2]: did not affect the apoptosis | apoptosis induced by the compound after knockdown of caspase 9 or caspase 3 ([2]; TOV21G, 1.25 μM, 48 hrs): significantly suppressed the apoptosis | apoptosis: Annexin V positive cells, cleaved caspase 3, cleaved PARP p85 ([2]; rocilinostat 1.25 μM, 48 hours): induced apoptosis | IC50 values in primary cells [3]: comparable to those observed in cell lines | sensitivity of cultures without ARID1A expression compared to those with ARID1A expression [3]: more sensitive | tolerability in clinical studies [4]: well-tolerated without a dose-limiting toxicity; also recorded: well-tolerated and show minimal toxicity
